Source: patent publication US5466861A, “Bridged bicyclic aromatic compounds and their use in modulating gene expression of retinoid receptors” (SRI International, priority 1992, dated 1995)

Legend:
Format in all cases: cell-based
[1] = tested on: CRBPII-RARE, activated only by RXR homodimers; experiment: Transient transfection CAT reporter assay, CRBPII-RARE; settings: CV-1 cells; retinoids 7 and 20 at 5×10^-7 M
Protocol: (§1) To carry out the analysis, four different reporter constructs were prepared carrying the aforementioned gene, followed by cotransfection with RARα, RARβ, or RXRα, or with RXRα and RARα together. […] CV- 1 cells or HEP G2 cells were grown in DME medium supplemented with 10% fetal calf serum. Cells were plated at 1.0×10^5 per well in a 24-well plate 16-24 hours before transfection. In general, 100 ng of reporter plasmid, 150 ng of β-galactosidase expression vector (pCH110, Pharmacia), and variable amounts of receptor expression vector were mixed with carrier DNA (pBluescript) to 1,000 ng of total DNA per well. […] The retinoids 7 and 20 were analyzed at a concentration of 5×10^-7 M.

[2] = tested on: CRBPI gene RARE, bound and activated by RAR/RXR heterodimers; experiment: Transient transfection CAT reporter assay, CRBPI-RARE; settings: CV-1 cells; retinoids 7 and 20 at 5×10^-7 M
Protocol: as §1

[3] = tested on: RARβ2 gene promoter RARE (βRARE); experiment: Transient transfection CAT reporter assay, βRARE; settings: CV-1 cells; 5×10^-7 M
Protocol: (§2) To carry out the analysis, four different reporter constructs were prepared carrying the aforementioned gene, followed by cotransfection with RARα, RARβ, or RXRα, or with RXRα and RARα together. […] CV- 1 cells or HEP G2 cells were grown in DME medium supplemented with 10% fetal calf serum. Cells were plated at 1.0×10^5 per well in a 24-well plate 16-24 hours before transfection. In general, 100 ng of reporter plasmid, 150 ng of β-galactosidase expression vector (pCH110, Pharmacia), and variable amounts of receptor expression vector were mixed with carrier DNA (pBluescript) to 1,000 ng of total DNA per well. Chloramphenicol acetyl transferase (CAT) activity was normalized for transfection efficiency by the corresponding β-galactosidase activity as described by M. Pfahl et al., /Methods in Enzymology 153:256 (1990).

RXR (RXRα) = molecular target: T1, RXR (RXRα) (Homo sapiens, UniProt P19793); experiment: TREpal-tk-reporter gene transient transfection assay with RXR expression vector; settings: for activity on TREpal-tk-reporter with RXR at 10^-7 M / activity on TREpal-tk-reporter with RXR at 10^-8 M / activity with RXR on TREpal-tk-reporter, preliminary evaluation: CV-1 cells; for activity with RXR on TREpal-tk-reporter, preliminary evaluation: RXR expression vector cotransfected; for activation of RXRα (overall conclusion): from TREpal and CRBPII reporter results
T1 construct: homodimer readout
T1 sequence (P19793 1-462): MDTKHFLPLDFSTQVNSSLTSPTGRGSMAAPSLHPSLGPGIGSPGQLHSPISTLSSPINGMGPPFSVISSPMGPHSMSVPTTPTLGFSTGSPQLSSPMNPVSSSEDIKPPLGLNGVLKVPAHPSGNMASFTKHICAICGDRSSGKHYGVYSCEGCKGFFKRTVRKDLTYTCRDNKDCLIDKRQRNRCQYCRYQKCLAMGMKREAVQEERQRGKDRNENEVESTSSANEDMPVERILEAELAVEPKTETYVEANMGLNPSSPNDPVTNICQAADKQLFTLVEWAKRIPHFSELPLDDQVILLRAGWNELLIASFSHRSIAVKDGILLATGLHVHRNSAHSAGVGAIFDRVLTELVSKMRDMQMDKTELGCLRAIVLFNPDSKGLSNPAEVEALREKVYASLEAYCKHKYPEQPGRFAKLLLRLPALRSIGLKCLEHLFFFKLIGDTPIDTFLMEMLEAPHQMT
Text: The TREpal-tk-reporter gene was use in the transient transfection assay of the preceding example to evaluate compounds 7 and 20 for induction of RXR activity specifically. The TREpal represents a response element that is activated by both RAR/RXR heterodimers and RXR homodimers (X-K. Zhang et al., Nature 358:587 (1992)).

RXR = experiment: Transient transfection reporter assay in other cell lines incl. Hep G2; settings: various other cell lines, including Hep G2 cells (particular high response)
Protocol: as §2

Row | activity with RXR on TREpal-tk-reporter, preliminary evaluation (RXR (RXRα)) | activation of RXRα (overall conclusion) (RXR (RXRα)) | Structure (SMILES) | activation of CRBPII-RARE reporter (CAT activity) [1] | activation of CRBPI-RARE reporter (CAT activity) [2] | activation of βRARE reporter (CAT activity) [3] | activity on TREpal-tk-reporter with RXR at 10^-7 M (RXR (RXRα)) | activity on TREpal-tk-reporter with RXR at 10^-8 M (RXR (RXRα)) | RXR-specific activation in other cell lines (RXR)
1 | indicated activity with RXR | effective activators | CC1(C)CCC(C)(C)c2cc(C3(c4ccc(C(=O)O)cc4)SCCS3)ccc21 [Compound 7, [2-(5,6,7,8-Tetrahydro-5,5,8,8-tetramethyl-2-naphthalenyl)-2-(4-carboxyphenyl)]-1,3-dithiolane] | strong activators | no response | slightly activated | activities similar to 9-cis-retinoic acid | neither of the active compounds revealed activity | –
2 | indicated activity with RXR | effective activators | CC(C)=C(c1ccc(C(=O)O)cc1)c1ccc2c(c1)C(C)(C)CCC2(C)C [Compound 20, 4-[1-(5,6,7,8-Tetrahydro-5,5,8,8-tetramethyl-2-naphthalenyl)-2-methyl-1-propenyl]benzoic acid] | strong activators | no response | slightly activated | activities similar to 9-cis-retinoic acid | neither of the active compounds revealed activity | significant and RXR-specific activation
